Tests used:
[1] = target: Neprilysin (Homo sapiens, UniProt P08473); experiment: In vitro inhibitory activity against neutral endopeptidase (NEP) was determined; settings: read-out: I50
[2] = tested on: Rattus norvegicus; experiment: In vivo effective dose against angiotensin I induced pressor response after intravenous administration in normotensive rats; format: functional
[3] = target: Angiotensin-converting enzyme (Rattus norvegicus) (UniProt P47820); experiment: In vitro inhibitory activity against angiotensin converting enzyme (ACE) in rat was determined; settings: read-out: I50
Sequence of Angiotensin-converting enzyme (Rattus norvegicus) (P47820 whole entry, looked up): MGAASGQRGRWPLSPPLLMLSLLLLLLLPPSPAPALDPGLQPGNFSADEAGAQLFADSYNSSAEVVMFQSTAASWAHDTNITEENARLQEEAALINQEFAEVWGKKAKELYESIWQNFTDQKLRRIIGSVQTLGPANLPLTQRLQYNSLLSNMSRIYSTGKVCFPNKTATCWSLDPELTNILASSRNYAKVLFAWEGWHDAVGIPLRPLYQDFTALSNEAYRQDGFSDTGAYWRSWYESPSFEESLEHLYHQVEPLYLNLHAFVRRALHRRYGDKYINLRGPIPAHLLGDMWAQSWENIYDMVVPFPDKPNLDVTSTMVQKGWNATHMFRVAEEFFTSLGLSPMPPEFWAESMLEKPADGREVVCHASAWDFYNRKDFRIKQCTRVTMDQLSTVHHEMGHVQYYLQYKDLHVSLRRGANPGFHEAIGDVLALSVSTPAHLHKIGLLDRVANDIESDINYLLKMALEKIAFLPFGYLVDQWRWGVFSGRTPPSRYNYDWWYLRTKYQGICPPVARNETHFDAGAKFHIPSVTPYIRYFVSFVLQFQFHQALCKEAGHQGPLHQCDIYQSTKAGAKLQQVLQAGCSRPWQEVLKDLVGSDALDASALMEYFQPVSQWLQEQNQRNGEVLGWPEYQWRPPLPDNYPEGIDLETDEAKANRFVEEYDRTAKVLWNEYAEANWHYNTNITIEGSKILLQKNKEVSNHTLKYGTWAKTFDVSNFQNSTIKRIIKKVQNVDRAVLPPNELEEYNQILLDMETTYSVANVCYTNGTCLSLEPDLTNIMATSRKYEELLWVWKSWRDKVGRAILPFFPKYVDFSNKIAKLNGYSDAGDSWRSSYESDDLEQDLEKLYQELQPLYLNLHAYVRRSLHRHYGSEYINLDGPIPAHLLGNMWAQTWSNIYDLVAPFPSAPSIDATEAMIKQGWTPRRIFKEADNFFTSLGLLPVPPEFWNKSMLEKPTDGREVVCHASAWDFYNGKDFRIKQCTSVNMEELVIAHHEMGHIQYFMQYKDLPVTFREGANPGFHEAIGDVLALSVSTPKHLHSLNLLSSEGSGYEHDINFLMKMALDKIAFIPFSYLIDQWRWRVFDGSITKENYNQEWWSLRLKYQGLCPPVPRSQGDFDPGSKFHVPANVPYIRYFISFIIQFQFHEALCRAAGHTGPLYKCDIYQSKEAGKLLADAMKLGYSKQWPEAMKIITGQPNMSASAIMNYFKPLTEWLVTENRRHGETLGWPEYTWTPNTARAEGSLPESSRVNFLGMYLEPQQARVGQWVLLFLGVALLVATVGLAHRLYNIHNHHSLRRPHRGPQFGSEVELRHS

Sequence of Neprilysin (P08473 whole entry): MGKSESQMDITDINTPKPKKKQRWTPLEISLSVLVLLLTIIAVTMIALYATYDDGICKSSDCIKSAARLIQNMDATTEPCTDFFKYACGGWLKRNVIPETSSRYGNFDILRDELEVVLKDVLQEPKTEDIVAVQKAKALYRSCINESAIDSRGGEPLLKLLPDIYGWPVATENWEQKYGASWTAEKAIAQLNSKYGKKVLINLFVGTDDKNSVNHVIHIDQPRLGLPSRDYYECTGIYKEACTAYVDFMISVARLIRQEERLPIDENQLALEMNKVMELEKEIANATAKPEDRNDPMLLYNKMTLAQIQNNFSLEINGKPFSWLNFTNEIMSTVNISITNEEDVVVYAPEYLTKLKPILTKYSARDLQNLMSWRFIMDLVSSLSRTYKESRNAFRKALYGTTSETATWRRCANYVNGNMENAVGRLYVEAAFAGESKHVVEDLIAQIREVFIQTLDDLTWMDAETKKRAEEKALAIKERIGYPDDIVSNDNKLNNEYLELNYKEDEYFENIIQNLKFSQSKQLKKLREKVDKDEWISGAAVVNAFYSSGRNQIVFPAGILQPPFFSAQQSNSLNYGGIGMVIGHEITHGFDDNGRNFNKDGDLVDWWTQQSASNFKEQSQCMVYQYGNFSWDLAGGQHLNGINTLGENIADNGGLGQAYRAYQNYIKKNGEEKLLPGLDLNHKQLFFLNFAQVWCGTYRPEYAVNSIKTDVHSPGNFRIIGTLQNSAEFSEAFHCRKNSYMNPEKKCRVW

Row | IC50 [1] [nM] | IC50 [3] [nM] | Compound | ED50 [2] [µmol/kg]
1 | 486 | – | O=C(O)CN1NCCC[C@H](NC(=O)[C@@H](S)Cc2ccccc2)C1=O | –
2 | 16 | – | O=C(N[C@H]1CCC(=O)N2CCC[C@@H](C(=O)O)N2C1=O)[C@@H](S)Cc1ccccc1 | 0.23
3 | 1920 | – | CCCN1C(=O)CC[C@H](NC(=O)[C@@H](S)Cc2ccccc2)C(=O)N1CC(=O)O | –
4 | 22 | – | O=C(N[C@H]1CCCN2CC[C@@H](C(=O)O)N2C1=O)[C@@H](S)Cc1ccccc1 | 0.12
5 | 484 | – | CN1CCC[C@H](NC(=O)[C@@H](S)Cc2ccccc2)C(=O)N1CC(=O)O | –
6 | 55 | – | CN1C(=O)CC[C@H](NC(=O)[C@@H](S)Cc2ccccc2)C(=O)N1CC(=O)O | 0.13
7 | 140 | – | O=C(N[C@H]1CCC(=O)N2CC[C@@H](C(=O)O)N2C1=O)[C@@H](S)Cc1ccccc1 | –
8 | 3 | – | O=C(N[C@H]1CCCN2CCC[C@@H](C(=O)O)N2C1=O)[C@@H](S)Cc1ccccc1 | 0.01
9 | 1490 | – | CCCN1CCC[C@H](NC(=O)[C@@H](S)Cc2ccccc2)C(=O)N1CC(=O)O | –
10 | – | 12 | O=C(O)CN1C(=O)[C@@H](NC(=O)[C@@H](S)Cc2ccccc2)CCc2ccccc21 | 0.02
